According to patent EP1678287B1, “DISPENSER CONTAINING LIQUID BLEACHING COMPOSITION” (Reckitt Benckiser (UK) Limited, priority 2003, dated 2005):

Assay: Storage stability of MMAM in an aqueous hydrogen peroxide composition with the surfactant under test
Type: physicochemical
Settings: 2 weight % Dowanol PnB added to the compositions of Example 1
Procedure: In this example, a number of surfactants were tested for their ability to stabilise methyl morpholinium acetonitrile methylsulphate (MMAM) in the presence of hydrogen peroxide.
The surfactant under test was added to an aqueous composition containing 1 weight % H2O2 and 1.1 weight % MMAM (1.7 weight % Sokalan BM) The active amount of surfactant in the composition was 1 weight %. In a control sample, no surfactant was added.

CCCCOCC(C)O (stereo not shown) [Dowanol PnB, n-butyl monoether of propylene glycol]
effect of solvent on stability: did not have a significant effect on stability
